Article PMC7380940, “Alterations in the intrinsic properties of striatal cholinergic interneurons after dopamine lesion and chronic L-DOPA” (eLife, 2020)

System: T1, Hyperpolarization-activated cyclic nucleotide-gated (HCN) channels (native, isoform not resolved)
T1 construct: native HCN current (Ih) in striatal cholinergic interneurons, acute slices
Test: whole-cell voltage-clamp of Ih in striatal slices, concentration-response
Type: cell-based, Mus musculus
Source text: whole-cell voltage-clamp of Ih in striatal slices, concentration-response on Hyperpolarization-activated cyclic nucleotide-gated (HCN) channels (native, isoform not resolved) | Dependence of Ih density (as measured on Figure 3E) on ZD7288 concentration.

IC50: 1400 nM
Structure (SMILES): CC/[N+](c1ccccc1)=c1\cc(NC)n(C)c(C)n1 [ZD7288]
